In patent publication US5264427A, “20-substituted pregnene derivatives and their use as androgen synthesis inhibitors” (priority 1992, dated 1993):
Like-named read-outs stand apart in the source and are kept apart here.

Assays:
Format in all cases: biochemical
[1] = target: T1, rat testicular 17(alpha)-hydroxylase/C17,20-lyase (Rattus norvegicus, UniProt P11715); experiment: Hydroxylase/lyase assay, rat testicular homogenates, [21-14C]progesterone (Example 4, Table 3); conditions: 0.75 h
T1 construct: rat testicular homogenates (prepared from 220-250g adult male Sprague-Dawley rats); from tissue; host or cells: testes of adult male Sprague-Dawley rats, homogenate
T1 sequence (P11715 1-507): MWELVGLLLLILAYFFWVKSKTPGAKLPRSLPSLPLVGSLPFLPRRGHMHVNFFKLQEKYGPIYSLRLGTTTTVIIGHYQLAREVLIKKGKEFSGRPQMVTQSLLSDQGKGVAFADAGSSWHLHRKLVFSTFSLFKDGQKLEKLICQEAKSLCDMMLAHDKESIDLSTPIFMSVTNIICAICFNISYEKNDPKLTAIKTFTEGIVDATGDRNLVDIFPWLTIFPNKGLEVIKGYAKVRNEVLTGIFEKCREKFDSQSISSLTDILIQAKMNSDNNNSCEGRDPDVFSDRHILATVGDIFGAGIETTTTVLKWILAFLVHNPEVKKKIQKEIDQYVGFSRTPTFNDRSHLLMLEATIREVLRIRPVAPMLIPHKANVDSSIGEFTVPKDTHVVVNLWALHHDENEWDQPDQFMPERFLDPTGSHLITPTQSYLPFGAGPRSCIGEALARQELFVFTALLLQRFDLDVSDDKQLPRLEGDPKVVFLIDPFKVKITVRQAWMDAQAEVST
Protocol: The assay was performed by incubation of rat testicular homogenates (prepared from 220-250g adult male Sprague-Dawley rats, approx. 3.5 mg protein) with [21-^14 C]progesterone (40uM, 5×10^4 dpm), NADPH generating system and candidate inhibitors in phosphate buffer (pH 7.4, total volume 500ul) under oxygen for 45 min at 37° C. Two ml of choloroform was added to each tube to stop the reaction. The steriods were extracted with chloroform and the aqueous phase was treated with charcoal. The side chain cleavage product [2-^14 C]acetic acid in the aqueous phase was mixed with 3a70B counting cocktail and counted on the Rack Beta II liquid scintillation counter. The enzyme activity was determined from the conversion of progesterone P4 to [2-^14 C]acetic acid.

[2] = target: T2, C17,20-lyase (Rattus norvegicus, UniProt P11715); experiment: C17,20-lyase assay, rat testicular microsomes (Example 1, Table 1); conditions: rat testicular microsomes, 17(alpha)-hydroxyprogesterone substrate, 30 min, 37 C; N.I. = no inhibition
T2 construct: approximately 1 mg rat testicular microsomal protein in 450 microliters phosphate buffer; from tissue; host or cells: testes of adult male Sprague-Dawley rats (Charles River), microsomal fraction
T2 sequence (P11715 1-507): T1 sequence (P11715 1-507)
Protocol: (§1) Testes were obtained from 220°-250g adult male Sprague-Dawley rats (Charles River), immediately frozen in liquid nitrogen and stored at -70° C. After thawing in the ice bath, the testes were minced and homogenized in 0.25M sucrose (1:4 w/v), then centrifuged at 12,000×gfor 30 min and the resulting supernatant centrifuged at 105,000×g for one hour. The supernatant was then decanted and the pellet containing the microsomes was resuspended in 0.1M sodium phosphate buffer (pH 7.4) (2.5g wet weight of tissue/ 2 ml buffer). All the above procedures were performed at 4C. The microsomal fraction was stored at -70C. Just before use, microsomes were diluted to the concentration of 1.25 g wet weight of tissue/10 ml phosphate buffer.
(§2) C^17,20 -Lyase: The procedure for measurement of the C17,20 -lyase was similar to the procedure for the 17(alpha)-hydroxylase, except that the substrate was 17(alpha)-hydroxy-[[1,2,6,7-^3 H]-progesterone (various concentration, 10^5 dpm) and recovery markers were [4-^14 C]-labelled steroids. Carrier steroids (170HP4, A and T) were also added to locate the product areas on the TLC plates. The enzyme activity was determined from the percent conversion of 17(alpha)-hydroxy-[1,2,6,7-3H]-progesterone to A and T.
The purity of each steroid on the TLC was confirmed by two methods. First, the percent conversion of each compound in a half amount of the extract from one incubation were compared after separation of TLC and HPLC. The HPLC procedure has been described in detail previously. The solvent system used was methanol/acetonitrile/water (15.6:36.4:48). […] Secondly, after the first separation by TLC in solvent system A (hexane/ethyl acetate 65:35), the eluted steroids were chromatographed in solvent system B (chloroform/acetonitrile, 85:15).

[3] = target: T3, 17(alpha)-hydroxylase (Rattus norvegicus, UniProt P11715); experiment: 17(alpha)-hydroxylase assay, rat testicular microsomes (Example 1, Table 1); conditions: rat testicular microsomes, progesterone substrate, 30 min, 37 C; N.I. = no inhibition
T3 construct: approximately 1 mg rat testicular microsomal protein in 450 microliters phosphate buffer; from tissue; host or cells: testes of adult male Sprague-Dawley rats (Charles River), microsomal fraction
T3 sequence (P11715 1-507): T1 sequence (P11715 1-507)
Protocol: as §1
(§3) The incubation was stopped by cooling the mixture in an ice bath and adding 2 ml ether to each incubation tube. The ^3 H-labelled steriods (progesterone P4; 17(alpha)-hydroxyprogesterone 170HP4, androstenedione A and testosterone T, 8,000dpm each) were added as recovery markers and the steroids were extracted with ether (2 ml×3). The ether was evaporated with air. Steroid carriers (P4, 17-0HP4, A and T, 4 micrograms each) were added to the extracts which were then applied to thin layer chromatography (TLC) plates for separation of the steroids. After development for 1.5 hours in hexanes/ethyl acetate, 65:35(v/v), the steroids were located by UV (254 nm) absorption, scraped off and eluted into scintillation vials with ether. After evaporating the ether, the steroids were dissolved in counting cocktail and the radioactivity measured. The recovery of steroids calculated from the ^3 H-labelled markers was between 80 to 90 percent and the enzyme activity was determined from the percentage conversion of [4-C^14 ]-progesterone to 170HP4, A and T.
The purity of each steroid on the TLC was confirmed by two methods. First, the percent conversion of each compound in a half amount of the extract from one incubation were compared after separation of TLC and HPLC. The HPLC procedure has been described in detail previously. The solvent system used was methanol/acetonitrile/water (15.6:36.4:48). The flow rate was 1 ml/min and pressure 2200 psi, the retention time of these steroids was P4 38.3 min, 170HP4 15.93 min, A 14.33 min, and T 11.43 min, respectively. Secondly, after the first separation by TLC in solvent system A (hexane/ethyl acetate 65:35), the eluted steroids were chromatographed in solvent system B (chloroform/acetonitrile, 85:15).
^1 Incubation of [4^14 Cprogesterone (various concentration,
microsome (approximately 1 mg protein) and NADPH generating system was
carried out at 37 C. under O2 for 30 min. The apparent Km for this

[4] = target: T4, 17(alpha)-hydroxylase/C17,20-lyase (Rattus norvegicus, UniProt P11715); experiment: Hydroxylase/lyase assay, rat testis homogenates, [21-14C]-progesterone side-chain cleavage (Examples 2 and 3, Table 2); conditions: progesterone 40 microM, 45 min
T4 construct: with rat testis homogenates (2.7 mg protein in 0.5 ml phosphate buffer); from tissue; host or cells: rat testis homogenate
T4 sequence (P11715 1-507): T1 sequence (P11715 1-507)
Protocol: Compounds I-16 and I-25 were synthesized according to known procedures. The compounds were then assayed for their ability to inhibit the 17(alpha)-hydroxylase/C17,20 -lyase enzyme and the 5(alpha)-reductaseenzyme. The hydroxylase/lyase assay was carried out by incubation of [21-^14 C]-progesterone (40 microM, 70,000 dpm) and candidate inhibitors with rat testis homogenates (2.7 mg protein in 0.5 ml phosphate buffer), NADPH generating system under oxygen for 45 minutes. The enzyme activity was measured according to the conversion of progesterone to the product of C17,20 -side chain cleavage ([2-^14 C]-acetic acid). […] The results were based on the TLC separation.

[5] = target: T5, 17(alpha)-hydroxylase/17,20-lyase enzyme (Rattus norvegicus, UniProt P11715); experiment: 17(alpha)-hydroxylase/17,20-lyase inhibition, rat testicular microsomes (Example 1); conditions: result in words
T5 sequence (P11715 1-507): T1 sequence (P11715 1-507)
Protocol: as §1
as §3, with “After development for 1.5 hours in hexanes/ethyl acetate, 65:35(v/v), the steroids were located by UV (254 nm) absorption, scraped off and eluted into scintillation vials with ether.” left out
as §2, with “Carrier steroids (170HP4, A and T) were also added to locate the product areas on the TLC plates.” left out

[6] = pH 7.4, read-out: Inhibition of 17(alpha)-hydroxylase/C17,20-lyase (%), [I] = 10 × [S]
[7] = pH 7.4, read-out: Inhibition of 17(alpha)-hydroxylase/C17,20-lyase (%), [I] = [S]
[8] = [I] = 10 × [S], progesterone 40uM, pH 7.4, 45 min, 37 C, read-out: Inhibition of 17(alpha)-hydroxylase/C17,20-lyase (%), [I] = 10 × [S]
[9] = [I] = [S], progesterone 40uM, pH 7.4, 45 min, 37 C, read-out: Inhibition of 17(alpha)-hydroxylase/C17,20-lyase (%), [I] = [S]

C[C@]12CC[C@H]3[C@@H](CC=C4C[C@@H](O)CC[C@@]43C)[C@@H]1CC[C@@H]2[C@]1(C)CO1 [Compound I-7, (20R)-20,21-epoxy-20-methyl-5-pregnen-3(beta)ol]
inhibition at 400 µM [1, 6]: 28.3% | inhibition at 40 µM [1, 7]: 21.6%

C[C@H](C=NN(C)C)[C@H]1CC[C@H]2[C@@H]3CCC4=CC(=O)CC[C@]4(C)[C@H]3CC[C@]12C [Compound I-15, 4-pregnen-3-oxo-20(beta)-carboxaldehyde N,N-dimethyl hydrazone]
inhibition at 400 µM [1, 8]: 52.7% | inhibition at 40 µM [1, 9]: 22.4%

C=C[C@H]1CC[C@H]2[C@@H]3CC=C4C[C@@H](O)CC[C@]4(C)[C@H]3CC[C@]12C [Compound I-28]
inhibition at 400 µM [1, 6]: 18.3% | inhibition at 40 µM [1, 7]: 13.5%

CC(=O)[C@@]12O[C@@H]1C[C@H]1[C@@H]3CCC4=CC(=O)CC[C@]4(C)[C@H]3CC[C@@]12C [Compound I-18]
inhibition at 400 µM [1, 8]: 64.2% | inhibition at 40 µM [1, 9]: 26.5%

CC(=NO)[C@H]1CC[C@H]2[C@@H]3CC=C4C[C@@H](O)CC[C@]4(C)[C@H]3CC[C@]12C [Compound I-1]
inhibition at 400 µM [1, 6]: 29.2% | inhibition at 40 µM [1, 7]: 15%

CC(C#N)=C1CC[C@H]2[C@@H]3CCC4=CC(=O)CC[C@]4(C)[C@H]3CC[C@]12C [Compound I-26, 20-cyano-4,17(20)-pregnadien-3-one]
inhibition at 400 µM [1, 6]: 89.7% | inhibition at 40 µM [1, 7]: 53.5%

CC(=NN)[C@H]1CC[C@H]2[C@@H]3CC=C4C[C@@H](O)CC[C@]4(C)[C@H]3CC[C@]12C [Compound I-12]
inhibition at 400 µM [1, 8]: 25.9% | inhibition at 40 µM [1, 9]: 8.55%

CCN(CC)C(=O)[C@H]1CC[C@H]2[C@@H]3CC[C@H]4N(C)C(=O)CC[C@]4(C)[C@H]3CC[C@]12C [Compound 4-MA, N,N-diethyl-4-methyl-3-oxo-4-aza-5(alpha)-androstane-17(beta)-carboxyamide, reference compound]
C17,20-lyase Ki [2]: N.I. | 17(alpha)-hydroxylase Ki [3]: N.I | % Inhibition of 17(alpha)hydroxylase/lyase, [I] = 10 × [S] [4]: No inhibition | % Inhibition of 17(alpha)hydroxylase/lyase, [I] = [S] [4]: No inhibition | inhibition of the 17(alpha)-hydroxylase/17,20-lyase enzyme [5]: did not show any inhibition

CC(O)(C#N)[C@H]1CC[C@H]2[C@@H]3CCC4=CC(=O)CC[C@]4(C)[C@H]3CC[C@]12C (some centres unmarked) [Compound I-25, 20-cyano-20-hydroxy-4-pregnen-3-one]
% Inhibition of 17(alpha)hydroxylase/lyase, [I] = 10 × [S] [4]: 89.32% | % Inhibition of 17(alpha)hydroxylase/lyase, [I] = [S] [4]: 50.63%

C#C[C@H]1CC[C@H]2[C@@H]3CC=C4C[C@@H](O)CC[C@]4(C)[C@H]3CC[C@]12C [Compound I-29]
inhibition at 400 µM [1, 6]: 3.84% | inhibition at 40 µM [1, 7]: 8.26%

C[C@H](N)[C@H]1CC[C@H]2[C@@H]3CC=C4C[C@@H](O)CC[C@]4(C)[C@H]3CC[C@]12C [Compound I-9]
inhibition at 400 µM [1, 6]: 27.3% | inhibition at 40 µM [1, 7]: 13.6%

CC(=NN(C)C)C1=CC[C@H]2[C@@H]3CC=C4C[C@@H](O)CC[C@]4(C)[C@H]3CC[C@]12C [Compound I-14, 5,16-Pregnadien-3(beta)-ol-20-one N,N-dimethyl hydrazone]
inhibition at 400 µM [1, 8]: 2.34% | inhibition at 40 µM [1, 9]: 10.2%

CC(=O)OC1=CC2=CC[C@H]3[C@@H]4CC[C@H]([C@H](C)C#N)[C@@]4(C)CC[C@@H]3[C@@]2(C)CC1 [Compound I-24]
inhibition at 400 µM [1, 8]: 67.2% | inhibition at 40 µM [1, 9]: 33.6%

CC(=NO)C1=CC[C@H]2[C@@H]3CC=C4C[C@@H](O)CC[C@]4(C)[C@H]3CC[C@]12C [Compound I-5]
inhibition at 400 µM [1, 6]: 51.8% | inhibition at 40 µM [1, 7]: 25.2%

C[C@]12CC[C@H]3[C@@H](CC=C4C[C@@H](O)CC[C@@]43C)[C@@H]1CC[C@@H]2[C@@]1(C)CO1 [Compound I-8, (20S)-20,21-epoxy-20-methyl-5-pregnen-3(beta)-ol]
inhibition at 400 µM [1, 6]: 29.4% | inhibition at 40 µM [1, 7]: 16.3%

C[C@H](C=O)[C@H]1CC[C@H]2[C@@H]3CCC4=CC(=O)CC[C@]4(C)[C@H]3CC[C@]12C [Compound I-16, 4-pregnen-3-one-20(beta)carboxaldehyde]
% Inhibition of 17(alpha)hydroxylase/lyase, [I] = 10 × [S] [4]: 89.95% | % Inhibition of 17(alpha)hydroxylase/lyase, [I] = [S] [4]: 61.76%

C[C@@H](N)[C@H]1CC[C@H]2[C@@H]3CC=C4C[C@@H](O)CC[C@]4(C)[C@H]3CC[C@]12C [Compound I-10]
inhibition at 400 µM [1, 6]: 33.8% | inhibition at 40 µM [1, 7]: 8.54%

C[C@]12CCC(=O)C(O)=C1CC[C@@H]1[C@@H]2CC[C@]2(C)C(=O)CC[C@@H]12 [Compound 4-OHA, 4-hydroxy androstenedione, reference compound]
inhibition of the 17(alpha)-hydroxylase/17,20-lyase enzyme [5]: did not show any inhibition
